Data reported in patent publication US20110262395A1, “SENSORY RECEPTORS FOR CHRONIC FATIGUE AND PAIN AND USES THEREOF” (UNIVERSITY OF UTAH RESEARCH FOUNDATION, priority 2008, published 2011).
Entries after “also recorded” stand apart in the source; their conditions may differ.

Key:
ASIC3 = target: T1, ASIC3 (Homo sapiens, UniProt Q9UHC3); conditions: cited from earlier work
T1 sequence (Q9UHC3 1-531): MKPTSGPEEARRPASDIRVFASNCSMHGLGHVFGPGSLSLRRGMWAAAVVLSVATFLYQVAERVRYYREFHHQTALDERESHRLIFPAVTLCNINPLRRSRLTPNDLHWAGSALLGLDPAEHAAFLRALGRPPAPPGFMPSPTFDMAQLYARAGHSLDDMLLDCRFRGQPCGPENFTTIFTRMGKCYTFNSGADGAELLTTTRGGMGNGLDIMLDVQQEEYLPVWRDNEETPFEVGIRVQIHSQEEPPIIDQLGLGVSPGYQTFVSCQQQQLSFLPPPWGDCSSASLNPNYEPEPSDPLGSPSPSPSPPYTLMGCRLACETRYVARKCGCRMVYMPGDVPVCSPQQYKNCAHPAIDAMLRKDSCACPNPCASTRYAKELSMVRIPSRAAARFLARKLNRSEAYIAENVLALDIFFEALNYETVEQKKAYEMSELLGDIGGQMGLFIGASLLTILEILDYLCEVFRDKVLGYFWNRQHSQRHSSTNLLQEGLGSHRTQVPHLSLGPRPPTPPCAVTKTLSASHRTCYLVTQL

DRG neurons [1] = assay: Calcium imaging of cultured DRG neurons: percent of neurons responding to applied metabolites or capsaicin; format: cell-based, mouse; conditions: for ability to enhance metabolite responses: ATP: 1 μM
Source text: (§1) Harvesting/culturing cells/loading cells: Thirty-nine three week old (4 wells of DRG neurons plated from each mouse), C57Bl/6 mice were anesthetized with isoflurane, and euthanized by cervical dislocation. Dorsal root ganglia (DRG) from lumbar regions were removed into HBSS, treated with trypsin, washed with MEM (Invitrogen 51200-038) containing 10% FBS (Hyclone), 2.4% glucose, 1% glutamax (Invitrogen 35050-061) and 1% penicillin/streptomycin (Atlanta Biological B2110). DRG were triturated, pre-plated and incubated at 37° C. for one hour to reduce non-neuronal cells. Neurons were gently swirled and centrifuged (110×g, 5 min). Cells were removed, re-suspended and 30 μL plated onto the 4 center wells of 24-well plates coated with poly-L-lysine and laminin. A 0.5 mm thick silicone ring with a 4 mm diameter opening sealed to the surface of each well reduced the plating area in each well. Following 1 hour, wells were filled with 37° C. culture medium with 10 ng/mL GDNF (Glial Derived Neurotrophic Factor) (Preprotech 450-10). Sixteen to 23 hours after plating, cultures were loaded with Fura-2 AM (Molecular Probes F-1221) fluorescent dye for 40-60 minutes, then washed with pH 7.4 oxygenated observation medium containing no additional ATP (145 mM NaCl, 5 mM KCl, 2 mM CaCl2, 1 mM MgCl2, 1 mM Citrate, 10 mM glucose, 10 mM MES, 10 mM HEPES). The final well volume was 500 μL.
Choice and concentrations of metabolites: Because the afferent receptors in muscle have been reported to be on the outside of blood vessels supplying muscle, values obtained for muscle interstitium from experiments using cat, rat, and human for muscle contraction evoked by mild to moderate to extreme exercise were used.
Protons (pH): Values between 7.6 and 6.2 were used spanning the range found in skeletal and cardiac muscle in mammals from above resting values to those found with injury and disease.
Lactate: 1-50 mM lactate was used, a range of values that spans from rest to ischemia in muscles of humans and rats and mice.
ATP: ATP concentrations in muscle interstitium increase from 300 nM at rest to 5 μM with ischemic muscle contraction (Hellsten et al., 1998; Li et al., 2003; Li et al., 2005). These levels were used in the experiments described below. […] To allow for physiological levels of desensitization of possible P2X receptors, freshly prepared ATP at 300 nM was used for at least 30 seconds before any further increases in ATP combined with other metabolites, to establish resting conditions in DRG neurons in these experiments. […] Also used were pH 6.0 and 4.0 without additional increases in metabolites to confirm that the imaging experiments could replicate recent reports using patch-clamp techniques (Leffler et al., 2006).
(§2) Combinations of metabolites applied to mimic naturally occurring conditions: When applied in an escalating series to mimic increases in metabolites that occur with muscle exercise and ischemic muscle exercise, the metabolite values shown in Table 1 were used. The values associated with pH 7.6 are at or below those normally found at rest in the mouse. The values at 7.4 approximate those found at rest. Generally, the low metabolite values associated with pH higher than 7.0 are likely to be non-noxious, while higher metabolite values at pH 7.0 and lower may be associated with pain. These values should bracket the physiological range of metabolites found in skeletal muscle with the last two values (those associated with 6.4 and 6.2) being higher than the physiological range (Bangsbo et al., 1993; Bangsbo et al., 2001; Li et al., 2003; Li et al., 2005; Reeh and Kress, 2001; Steinhagen et al., 1976).
Di-I labeling: In some experiments, neurons were identified as innervating muscle by prior muscle labeling with Di-I. Twelve 7-9 day old mice were anesthetized by cooling. […]

DRG neurons [2] = assay: Calcium imaging of cultured DRG neurons: antagonist effects on responses to increasing metabolites (protons, lactate, ATP); format: cell-based, mouse
Source text: as §1, §2
(§3) JYL-1422, LJO-328, A-317567, and a selected stereo isomer of A-317567 were each dissolved in 5% DMSO/95% water and a few μL of 1M HCl to a concentration of 10 mM, then quick frozen and stored at −20° C. Aliquots of antagonists were thawed and diluted to the appropriate concentrations just prior to use in the experiments. The strong buffers maintained the pH of these antagonists when mixed with metabolites.
(§4) Imaging procedure: All experiments were performed at room temperature (20-25° C.) to allow correspondence with most previous experiments using calcium imaging and patch clamp of DRG neurons. Cells were imaged using the Meta Imaging Series Metafluor program (Universal Imaging Corp). All cells identifiable as neurons based on their round shape, clear, single nucleus, were selected from a phase image of the field. At the end of each experiment, 200 nM capsaicin was applied, followed by a wash, and then applied 50 mM KCl. Capsaicin activation indicated the presence of TRPV1 receptors on neurons, and KCl ensured that recorded objects were active neurons, and established the maximal calcium response in each neuron. For some neurons the administration of capsaicin abolished the potential for responding to KCl, thus either a response to capsaicin or to KCl indicated viability of neurons, and only viable neurons were included in analyses.
For each field an average of 151+10 cells were tracked real-time. […] FIGS. 1 and 2 show traces from these graphs. […]

DRG neurons [3] = assay: Calcium imaging of cultured DRG neurons: antagonist effects on responses to capsaicin, ATP or KCl (selectivity control); format: cell-based, mouse
Source text: as §1, §3, §4
For each field an average of 151+10 cells were tracked real-time. […]

ASIC1 = target: T2, ASIC1 (Homo sapiens, UniProt P78348); conditions: read-out: IC 50 for ASIC1; cited from earlier work
T2 sequence (P78348 1-528): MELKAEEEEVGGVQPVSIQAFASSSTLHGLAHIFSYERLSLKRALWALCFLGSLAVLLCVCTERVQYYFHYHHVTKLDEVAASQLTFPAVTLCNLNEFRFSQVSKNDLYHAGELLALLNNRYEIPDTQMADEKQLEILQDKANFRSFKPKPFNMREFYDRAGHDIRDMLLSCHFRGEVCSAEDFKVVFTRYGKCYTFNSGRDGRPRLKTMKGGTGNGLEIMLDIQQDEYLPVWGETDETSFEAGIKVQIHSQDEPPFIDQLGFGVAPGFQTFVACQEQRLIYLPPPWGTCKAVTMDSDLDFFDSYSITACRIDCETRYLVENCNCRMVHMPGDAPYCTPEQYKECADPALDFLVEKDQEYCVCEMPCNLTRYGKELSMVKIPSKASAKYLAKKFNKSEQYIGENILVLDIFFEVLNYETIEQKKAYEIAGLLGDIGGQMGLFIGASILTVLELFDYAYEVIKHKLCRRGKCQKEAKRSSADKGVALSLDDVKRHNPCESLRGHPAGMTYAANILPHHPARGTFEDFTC

ASIC2 = target: T3, ASIC2 (Homo sapiens, UniProt Q16515); conditions: read-out: IC 50 for ASIC2; cited from earlier work
T3 sequence (Q16515 1-512): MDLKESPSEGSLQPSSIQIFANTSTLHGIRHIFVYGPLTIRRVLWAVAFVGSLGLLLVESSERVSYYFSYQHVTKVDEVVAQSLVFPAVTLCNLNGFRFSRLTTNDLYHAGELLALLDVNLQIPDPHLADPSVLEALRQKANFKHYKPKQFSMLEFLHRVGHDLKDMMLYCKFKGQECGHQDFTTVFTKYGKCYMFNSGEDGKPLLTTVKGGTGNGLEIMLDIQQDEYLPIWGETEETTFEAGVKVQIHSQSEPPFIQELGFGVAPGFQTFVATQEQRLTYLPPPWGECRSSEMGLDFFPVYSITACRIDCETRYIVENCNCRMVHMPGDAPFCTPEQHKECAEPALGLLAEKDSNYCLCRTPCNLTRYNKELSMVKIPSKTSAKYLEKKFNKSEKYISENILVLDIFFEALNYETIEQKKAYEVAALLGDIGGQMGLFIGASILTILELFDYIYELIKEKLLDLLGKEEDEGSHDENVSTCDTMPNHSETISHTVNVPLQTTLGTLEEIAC

Molecule: APETx2
- inhibition of ASIC3 and ASIC3 heteromers (ASIC3): can selectively inhibit ASIC3 and ASIC3 heteromers

Molecule: Nc1ncnc2c1ncn2[C@@H]1O[C@H](COP(=O)(O)OP(=O)(O)OP(=O)(O)O)[C@@H](O)[C@H]1O [ATP]
- percent of DRG neurons responding (DRG neurons [1]; ATP with lactate): 4.7%
- ability to enhance metabolite responses (DRG neurons [1]): capable of enhancing metabolite responses when freshly prepared
- percent of DRG neurons activated (DRG neurons [1]; graded series, going from 2 μM to 5 μM): approximately 16%
- percent of DRG neurons activated (DRG neurons [1]; gradually increased from resting amounts, only at concentrations higher than 2 μM): < 11%
- percent of DRG neurons activated (DRG neurons [1]; increasing graded series from 300 nM, when 2 μM was reached): less than 10%
- percent of DRG neurons responding (DRG neurons [1]; pH 7.0-ATP 1 μM (increasing protons with addition of ATP)): 11.2%

Molecule: Nc1ncnc2c1ncn2[C@@H]1O[C@H](COP(=O)(O)OP(=O)(O)O)[C@@H](O)[C@H]1O [ADP]
- ability to enhance metabolite responses (DRG neurons [1]): not capable of enhancing metabolite responses

Molecule: Cc1nc(N=Nc2ccc(S(=O)(=O)O)cc2S(=O)(=O)O)c(COP(=O)(O)O)c(C=O)c1O [PPADS]
- effect on responses to increasing metabolites (DRG neurons [2]; antagonist 300 μM): eliminated most responses to increasing metabolites
- effect on responses to increasing metabolites (DRG neurons [2]; antagonist 200-300 μM, doses effective at all P2X receptors): eliminated nearly all responses to increasing metabolites

Molecule: CC(C)C1c2cc(C3CC3c3ccc4cc(C(=N)N)ccc4c3)ccc2CCN1C (stereo not shown) [A-317567]
- DRG neuron responses to metabolites blocked (DRG neurons [2]; antagonist 100 μM, metabolites increased as high as pH 6.6, lactate 50 mM, ATP 5): ~80%
- responses to metabolites, % of the control level (DRG neurons [2]; antagonist 100 μM, p<0.0001): 23%
- effect on responses to metabolites (DRG neurons [2]; antagonist 200 μM): blocked all responses to metabolites
- effect on responses to capsaicin, ATP or KCl (DRG neurons [3]; any dose, applied for 10 minutes or less): caused no decrements in calcium responses evoked by capsaicin, ATP or KCl; also recorded: did not decrease responses to capsaicin, ATP, or KCl; also recorded: did not block DRG neuron capsaicin responses, KCl responses, or responses to 5 μM ATP
- effect on responses to capsaicin, ATP or KCl (DRG neurons [3]; applied for more than 20 minutes): caused some decrements in these responses
- IC50 (ASIC1): 2 µM
- IC50 (ASIC2): 9.1 µM
- IC50 (ASIC3; read-out: IC 50 for ASIC3): 9.5 µM

Molecule: CC(O)C(=O)O (stereo not shown) [lactate]
- percent of DRG neurons activated (DRG neurons [1]; 50 mM, pH 6.6): 9.5%
- percent of DRG neurons activated (DRG neurons [1]; 5-15 mM combined with protons at pH 7.3-6.8): less than 4%
- DRG neuron responses (DRG neurons [1]; alone, 1-50 mM, pH 7.4): caused no increases in DRG neuron responses; also recorded: activated very few mouse DRG neurons
- total percent of DRG neurons activated (DRG neurons [1]; lactate plus protons, all levels of metabolites included): more than 10%
